Source: US8153589B2, “JNK3 as a target for the treatment of angiogenesis-related diseases” (The University of North Carolina at Chapel Hill, priority 2009, dated 2012)

How the values were obtained:
Format in all cases: cell-based, bovine
eNOS = eNOS Ser 1177 phosphorylation, Western blot in BAECs
Procedure: (§1) Cells were harvested in lysis buffer (1% Triton X-100, 50 mM Tris, pH 7.4, 150 mM NaCl, 1 mM Na3VO4 and 0.1% protease inhibitor tablet; Roche) and clarified by centrifugation at 16,000 g. Equal amounts of proteins were incubated with a specific antibody overnight at 4° C. with gentle rotation. Protein A/G Plus-agarose beads (Santa Cruz Biotechnology, Santa Cruz, Calif.) were used to pull down the antibody complexes. Afterward, beads were washed with lysis buffer, and immune complexes were separated by SDS-PAGE. Total cell lysates were separated by SDS-PAGE and transferred to nitrocellulose membranes.
The degree of SDF-1α-induced activation of eNOS was examined in bovine aortic endothelial cells (BAECs) by monitoring phosphorylation of the Ser 1177 activation site in eNOS. […] Phosphorylation of Ser 1177 peaked at 5 minutes after SDF-1α stimulation (FIG. 1A), and increased in a dose-dependent fashion over a SDF-1α concentration range of 50 ng/ml to 500 ng/ml (FIG. 1B), which approximates physiologically relevant SDF-1α concentrations.

BAECs [1] = experiment: Scratch wound healing assay; conditions: 50 ng/ml SDF-1alpha, no inhibitor
Procedure: For detection of cell migration, a wound healing assay was performed as previously described (40). BAECs were grown on 35 mm wells, the monolayer was scratched with a sterile disposable rubber policeman and the edge labeled with a traced line. After injury, the cells were gently washed with normal media without serum. EC migration from the edge of the injured monolayer was quantified by measuring the area between the wound edges before and the recovered area after injury using light microscopy (Eclipse TS100, 4× objective, Nikon) and the computer program ImageJ.
To determine whether eNOS activation is required for SDF-1α-mediated endothelial cell migration, we performed scratch-wound healing and Boyden chamber migration assays in the presence of the NOS-specific inhibitor L-NMMA (19). Confluent BAECs were pretreated for one hour with 1 mM or 5 mM L-NMMA or vehicle prior to each assay. […] Similarly, cell migration in Boyden chambers was induced by SDF-1α (from 8±3 to 86±5 cells per field), but this increase in migration was inhibited by the pre-incubation of BAECs with L-NMMA (FIG. 1D). The involvement of eNOS in SDF-1α-induced endothelial cell migration was confirmed by treatment of cells with siRNAs specific for eNOS. […]

BAECs [2] = experiment: Boyden chamber migration assay
Procedure: Boyden chamber assays were performed as previously described (40, 41) using a 48-well chamber apparatus (NeuroProbe, Cabin John, Md.). The lower chambers of the apparatus were filled with DMEM with or without SDF-1alpha and then covered with the collagen-coated filter and the upper chambers. Cells pretreated with or without the indicated inhibitors were then added to the upper chambers. After incubating for 6 h at 37° C., cells present on the lower surface were fixed, stained and identified with the 40× objective lens on a Nikon Eclipse TS 100 inverted microscope.
To determine whether eNOS activation is required for SDF-1α-mediated endothelial cell migration, we performed scratch-wound healing and Boyden chamber migration assays in the presence of the NOS-specific inhibitor L-NMMA (19). Confluent BAECs were pretreated for one hour with 1 mM or 5 mM L-NMMA or vehicle prior to each assay. […] Endothelial cells were transfected with 1 of 3 different bovine eNOS-specific siRNAs, or mixture of all three, and 72 hours later cell lysates were examined by western blot analysis for levels of eNOS protein.

JNK3 = experiment: JNK activation (phospho-JNK Western blot) in BAECs; conditions: BAECs
Procedure: as §1
Mitogen-activated protein kinases (MAPKs), including ERK1/2 and p38, have been reported to enhance angiogenesis (20, 21). However, the role of JNK in angiogenesis remains controversial, with studies showing both positive and negative outcomes of JNK activation. In order to determine which MAPKs are involved in SDF-1α-induced endothelial cell migration, we screened the activities and expression levels of ERK1/2, p38 and JNK following treatment of BAECs with SDF-1α. […] SDF-1α activated both JNK and ERK1/2 in a dose-dependent manner (FIG. 2B). […] Protein and mRNA for all three JNK isoforms, JNK1, JNK2 and JNK3, can be found in BAECs (FIGS. 5, A&B). In order to determine which JNK protein(s) was activated by SDF-1α in these cells we used a previously described assay (22). Exogenous JNK1, JNK2 and JNK3 proteins containing Flag or GFP-epitopes were transiently expressed in BAECs and their activities were determined via western blotting with a phospho-JNK antibody following SDF-1α treatment. […] To confirm the finding that JNK3 is the only JNK entity activated by SDF-1α, we transfected cells with siRNAs for each of the JNK proteins and then tested the effect of each siRNA for the ability to suppress SDF-1α-induced JNK activation. […] Because JNK3 was the only SDF-1α-activated JNK in endothelial cells in our studies (FIG. 2C & FIG. 5, C), we consider the phospho-JNK signals in western blots with anti-phospho-JNK antibody as the signals for activated JNK3.

SDF-1α
time of peak phosphorylation of eNOS Ser 1177 after stimulation (eNOS; 50 ng/ml SDF-1alpha): 5 min
eNOS phosphorylation (Ser 1177) (eNOS; 50 ng/ml to 500 ng/ml SDF-1α): time- and dose-dependent manner
BAEC migration towards the wounded area (BAECs [1]): 56.0±12.0%
cell migration in Boyden chambers (BAECs [2]; 50 ng/ml SDF-1alpha, no inhibitor (FIG. 1D)): 86±5 cells per field
endothelial cell migration (BAECs [2]; control-transfected BAECs, 50 ng/ml SDF-1alpha (FIG. 4F)): 125±9 cells/field
phosphorylation of exogenous Flag/GFP-tagged JNK1, JNK2, JNK3 (JNK3; 50 ng/ml SDF-1alpha for 5 minutes): only phosphorylation of JNK3 (but not JNK1 or JNK2) was increased
JNK activity (JNK3; SDF-1α 50 ng/ml): potently induced
